Results as given in US11891388B2 (Incyte Corporation, priority 2016, dated 2024).

Target: HPK1 (Homo sapiens, UniProt Q92918)
Test: HPK1 Kinase Binding Assay
Details: LanthaScreen tracer 222 binding, active HPK1, one hour incubation at 25° C.
Procedure: A stock solution of 1 mM test compound was prepared in DMSO. The compound plate was prepared by 3-fold and 11-point serial dilutions. 0.1 μL of the compound in DMSO was transferred from the compound plate to the white 384 well polystyrene plates. The assay buffer contained 50 mM HEPES, pH 7.5, 0.01% Tween-20, 5 mM MgCl2, 0.01% BSA, and 5 mM DTT. 5 μl of 4 nM active HPK1 (SignalChem M23-11G) prepared in the buffer was added to the plate. The enzyme concentration given was based on the given stock concentration reported by the vender. 5 μl of 18 nM tracer 222 (ThermoFisher PV6121) and 4 nM LanthaScreen Eu-Anti GST antibody (ThermoFisher PV5595) were added. After one hour incubation at 25° C., the plates were read on a PHERAstar FS plate reader (BMG Labtech). Ki values were determined.

| Structure (SMILES) | Ki |
| --- | --- |
| CN1CCN(c2ccc(-c3n[nH]c4ccc(-c5ccccc5)nc34)cc2)CC1 [Example 1, 3-(4-(4-Methylpiperazin-1-yl)phenyl)-5-phenyl-1H-pyrazolo[4,3-b]pyridine] | 100 to 500 nM |
| COc1ccccc1-c1ccc2[nH]nc(-c3ccc(N4CCN(C)CC4)cc3)c2n1 [Example 2] | 100 to 500 nM |
| CN1CCN(c2ccc(-c3n[nH]c4ccc(-c5ccccc5O)nc34)cc2)CC1 [Example 14, 2-(3-(4-(4-Methylpiperazin-1-yl)phenyl)-1H-pyrazolo[4,3-b]pyridin-5-yl)phenol] | 100 to 500 nM |
| CN1CCN(c2ccc(-c3n[nH]c4ccc(-c5cccc6c5OCC6)nc34)cc2)CC1 [Example 15, 5-(2,3-Dihydrobenzofuran-7-yl)-3-(4-(4-methylpiperazin-1-yl)phenyl)-1H-pyrazolo[4,3-b]pyridine] | 100 to 500 nM |
| CN1CCN(c2ccc(-c3n[nH]c4ccc(-c5cccc6c5OCCO6)nc34)cc2)CC1 [Example 16, 5-(2,3-Dihydrobenzo[b][1,4]dioxin-5-yl)-3-(4-(4-methylpiperazin-1-yl)phenyl)-1H-pyrazolo[4,3-b]pyridine] | 100 to 500 nM |
| CNC(=O)c1cccc(-c2ccc3[nH]nc(-c4ccc(N5CCN(C)CC5)cc4)c3n2)c1 [Example 17, N-Methyl-3-(3-(4-(4-methylpiperazin-1-yl)phenyl)-1H-pyrazolo[4,3-b]pyridin-5-yl)benzamide] | 100 to 500 nM |
| CN1CCN(c2ccc(-c3n[nH]c4ccc(-c5cccc(N(C)C)c5)nc34)cc2)CC1 [Example 18, N,N-Dimethyl-3-(3-(4-(4-methylpiperazin-1-yl)phenyl)-1H-pyrazolo[4,3-b]pyridin-5-yl)aniline] | 500 to 10000 nM |
| COC(=O)c1ccccc1-c1ccc2[nH]nc(-c3ccc(N4CCN(C)CC4)cc3)c2n1 [Example 20, Methyl 2-(3-(4-(4-methylpiperazin-1-yl)phenyl)-1H-pyrazolo[4,3-b]pyridin-5-yl)benzoate] | 500 to 10000 nM |
| CC(=O)Nc1ccccc1-c1ccc2[nH]nc(-c3ccc(N4CCN(C)CC4)cc3)c2n1 [Example 21, N-(2-(3-(4-(4-Methylpiperazin-1-yl)phenyl)-1H-pyrazolo[4,3-b]pyridin-5-yl)phenyl)acetamide] | 500 to 10000 nM |
| CN1CCN(c2ccc(-c3n[nH]c4ccc(-c5ccccc5-c5ccccc5)nc34)cc2)CC1 [Example 22, 5-(Biphenyl-2-yl)-3-(4-(4-methylpiperazin-1-yl)phenyl)-1H-pyrazolo[4,3-b]pyridine] | 100 to 500 nM |
| CN1CCN(c2ccc(-c3n[nH]c4ccc(-c5ccncc5)nc34)cc2)CC1 [Example 25, 3-(4-(4-Methylpiperazin-1-yl)phenyl)-5-(pyridin-4-yl)-1H-pyrazolo[4,3-b]pyridine] | 100 to 500 nM |
| CN1CCN(c2ccc(-c3n[nH]c4ccc(-c5ccc(=O)n(C)c5)nc34)cc2)CC1 [Example 30, 1-Methyl-5-(3-(4-(4-methylpiperazin-1-yl)phenyl)-1H-pyrazolo[4,3-b]pyridin-5-yl)pyridin-2(1H)-one] | 500 to 10000 nM |
| CN1CCN(c2ccc(-c3n[nH]c4ccc(-c5cccc6ncccc56)nc34)cc2)CC1 [Example 36, 5-(3-(4-(4-Methylpiperazin-1-yl)phenyl)-1H-pyrazolo[4,3-b]pyridin-5-yl)quinoline] | 100 to 500 nM |
| CN1CCN(c2ccc(-c3n[nH]c4ccc(-c5cccc6c5CC(=O)N6)nc34)cc2)CC1 [Example 38, 4-(3-(4-(4-Methylpiperazin-1-yl)phenyl)-1H-pyrazolo[4,3-b]pyridin-5-yl)indolin-2-one] | 100 to 500 nM |
| CN1CCN(c2ccc(-c3n[nH]c4ccc(-c5cccc6c5ccn6C)nc34)cc2)CC1 [Example 39, 5-(1-Methyl-1H-indol-4-yl)-3-(4-(4-methylpiperazin-1-yl)phenyl)-1H-pyrazolo[4,3-b]pyridine] | 100 to 500 nM |
| CCc1cn2cccc(-c3ccc4[nH]nc(-c5ccc(N6CCN(C)CC6)cc5)c4n3)c2n1 [Example 45, 5-(2-Ethylimidazo[1,2-a]pyridin-8-yl)-3-(4-(4-methylpiperazin-1-yl)phenyl)-1H-pyrazolo[4,3-b]pyridine] | 100 to 500 nM |
| CN1CCN(c2ccc(-c3n[nH]c4ccc(-c5cccc6c5CCC6NCCO)nc34)cc2)CC1 (centres unmarked) [Example 49, 2-(4-(3-(4-(4-Methylpiperazin-1-yl)phenyl)-1H-pyrazolo[4,3-b]pyridin-5-yl)-2,3-dihydro-1H-inden-1-ylamino)ethanol] | ≤ 100 nM |
| Fc1ccccc1-c1ccc2[nH]nc(-c3ccccc3)c2n1 [Example 51, 5-(2-Fluorophenyl)-3-phenyl-1H-pyrazolo[4,3-b]pyridine] | 500 to 10000 nM |
| Fc1ccccc1-c1ccc2[nH]nc(-c3ccncc3)c2n1 [Example 52, 5-(2-Fluorophenyl)-3-(pyridin-4-yl)-1H-pyrazolo[4,3-b]pyridine] | 500 to 10000 nM |
| CNC(=O)c1ccc(-c2n[nH]c3ccc(-c4ccccc4F)nc23)cc1 [Example 53, 4-(5-(2-Fluorophenyl)-1H-pyrazolo[4,3-b]pyridin-3-yl)-N-methylbenzamide] | 100 to 500 nM |
| Cn1cc(-c2n[nH]c3ccc(-c4ccccc4F)nc23)cn1 [Example 54] | 100 to 500 nM |
| CN1CCN(C(=O)c2ccc(-c3n[nH]c4ccc(-c5ccccc5F)nc34)cc2)CC1 [Example 56, (4-(5-(2-Fluorophenyl)-1H-pyrazolo[4,3-b]pyridin-3-yl)phenyl)(4-methylpiperazin-1-yl)methanone] | 500 to 10000 nM |
| O=C(Nc1ccccc1)c1ccc(-c2n[nH]c3ccc(-c4ccccc4F)nc23)cc1 [Example 57, 4-(5-(2-Fluorophenyl)-1H-pyrazolo[4,3-b]pyridin-3-yl)-N-phenylbenzamide] | 500 to 10000 nM |
| Fc1ccccc1-c1ccc2[nH]nc(-c3cnn(C4CCNCC4)c3)c2n1 [Example 58, 5-(2-Fluorophenyl)-3-(1-(piperidin-4-yl)-1H-pyrazol-4-yl)-1H-pyrazolo[4,3-b]pyridine] | 100 to 500 nM |
| CS(=O)(=O)N1CCC(n2cc(-c3n[nH]c4ccc(-c5ccccc5F)nc34)cn2)CC1 [Example 59, 5-(2-Fluorophenyl)-3-(1-(1-(methylsulfonyl)piperidin-4-yl)-1H-pyrazol-4-yl)-1H-pyrazolo[4,3-b]pyridine] | 500 to 10000 nM |
| CC(=O)N1CCC(n2cc(-c3n[nH]c4ccc(-c5ccccc5F)nc34)cn2)CC1 [Example 60, 1-(4-(4-(5-(2-Fluorophenyl)-1H-pyrazolo[4,3-b]pyridin-3-yl)-1H-pyrazol-1-yl)piperidin-1-yl)ethanone] | 500 to 10000 nM |
